Assay results: patent US20230320362A1, “COMPOSITION AND METHOD FOR WEED AND GRASS CONTROL” (United Industries Corporation, priority 2022, published 2023)

Test system: weed or grass
Assay: not given
Details: Table 1 Notes; cited from earlier work

Molecule	residual activity (in words)	residual activity	residual
CCOC(=O)C(Cl)Cc1cc(-n2nc(C)n(C(F)F)c2=O)c(F)cc1Cl (stereo not drawn) [Carfentrazone-ethyl]	No residual activity		
Cc1c(C(=O)c2cnn(C)c2O)ccc(S(C)(=O)=O)c1C1=NOCC1 [Topramezone]		14 days residual activity	
CS(=O)(=O)c1ccc(C(=O)C2C(=O)CCCC2=O)c(Cl)c1 [Sulcotrione]	No residual activity		
Nc1c([N+](=O)[O-])ccc(Oc2ccccc2)c1Cl [Aclonifen]	Moderate residual activity		
CCc1cnc(C2=NC(C)(C(C)C)C(=O)N2)c(C(=O)O)c1 (stereo not drawn) [Imazethapyr]	Two to three months residual		
O=C(O)c1cc(Oc2ccc(C(F)(F)F)cc2Cl)ccc1[N+](=O)[O-] [Acifluorfen]	No residual activity		
CC(C)N(C)S(=O)(=O)NC(=O)c1cc(-n2c(=O)cc(C(F)(F)F)n(C)c2=O)c(F)cc1Cl [Saflufenacil]	No residual activity		
Cc1cnc(C2=NC(=O)C(C)(C(C)C)N2)c(C(=O)O)c1 (stereo not drawn) [Imazapic]	Four months residual activity		
c1cc[n+]2c(c1)-c1cccc[n+]1CC2 [Diquat]	No residual activity		
COC(=O)c1cc(Oc2ccc(Cl)cc2Cl)ccc1[N+](=O)[O-] [Bifenox]	Six to eight weeks residual activity		
CCCCCCCC(=O)O [Caprylic/octanoic acid]	No residual activity		
CS(=O)(=O)c1ccc(C(=O)C2=C(Sc3ccccc3)C3CCC(C3)C2=O)c(Cl)c1 (stereo not drawn) [Benzobicyclon]		14 days residual activity	
CS(=O)(=O)c1cc(C(F)(F)F)ccc1C(=O)c1cnoc1C1CC1 [Isoxaflutole]	No residual activity		
CS(=O)(=O)NC(=O)c1cc(Oc2ccc(C(F)(F)F)cc2Cl)ccc1[N+](=O)[O-] [Fomesafen]		12-month residual activity	
CCOC(=O)COc1cc(-c2nn(C)c(OC(F)F)c2Cl)c(F)cc1Cl [Pyraflufen-ethyl]	Burndown activity with no residual		
C=CCOC(=O)C(C)(C)OC(=O)c1cc(-n2c(=O)cc(C(F)(F)F)n(C)c2=O)ccc1Cl [Butafenacil]	No residual activity		
Oxadiargyl	Pre-emergent active		
CCCCCCCCC(=O)O.N [Ammonium nonanoate]	Top kill, no residual activity		
CCOC(=O)/C(Cl)=C/c1cc(N2C(=O)C3=C(CCCC3)C2=O)ccc1Cl [Cinidon-ethyl]	No residual activity		
CC(C)C1(C)N=C(c2ncccc2C(=O)O)NC1=O (stereo not drawn) [Imazapyr]	Four months residual activity		

Molecule	residual activity (in words)	residual activity	residual
C#CCN1C(=O)C(F)(F)Oc2cc(F)c(-n3c(=O)n(C)c(=S)n(C)c3=O)cc21 [Trifludimoxazin]		Short residual activity of 40 days	
CCOc1cc(Oc2ccc(C(F)(F)F)cc2Cl)ccc1[N+](=O)[O-] [Oxyfluorfen]			Kills shoots and roots, 30 d residual
Cc1ccc(C(=O)COc2c(C(=O)c3ccc(Cl)c(C)c3Cl)c(C)nn2C)cc1 [Benzafenap]		38 days residual activity	
COC(=O)CSc1cc(/N=c2\sc(=O)n3n2CCCC3)c(F)cc1Cl [Fluthiacet-methyl]	No residual activity		
CC(C)N(C(=O)n1cnn(-c2ccc(Cl)cc2Cl)c1=O)c1ccc(F)cc1F [Ipfencarbazone]		70 days residual activity	
CP(=O)(O)CCC(N)C(=O)O (stereo not drawn) [Glufosinate]	Kills shoots and roots, short residual activity		
CCOC(=O)COc1cc(-n2ncc(C(F)(F)F)c(C)c2=O)c(F)cc1Cl [Flufenpyr-ethyl]	No residual activity		
CS(=O)(=O)c1ccc(C(=O)C2C(=O)CCCC2=O)c([N+](=O)[O-])c1 [Mesotrione]		Limited residual activity (6-15 days)	
CCCCCCCCC(=O)O [Pelargonic acid]	No residual activity		
CC(C)Oc1cc(-n2nc(C(C)(C)C)oc2=O)c(Cl)cc1Cl [Oxadiazon]		Moderate residual activity (2 months)	
CC(C)=C1OC(=O)N(c2cc(OC3CCCC3)c(Cl)cc2F)C1=O [Pentoxazone]	No residual activity		
Cc1nn(C)c(OCC(=O)c2ccccc2)c1C(=O)c1ccc(Cl)cc1Cl [Pyrazoxyfen]		4-15 days residual activity	
CCOC(=O)C(C)OC(=O)c1cc(Oc2ccc(C(F)(F)F)cc2Cl)ccc1[N+](=O)[O-] (stereo not drawn) [Lactofen]		Very short residual activity (2-3 weeks)	
Capric/decanoate acid of salt thereof	No residual activity		
CCCCCOC(=O)COc1cc(N2C(=O)C3=C(CCCC3)C2=O)c(F)cc1Cl [Flumiclorac pentyl]	No residual activity		
COC(=O)CCNC(=O)C(C)Sc1cc(-n2c(=O)cc(C(F)(F)F)n(C)c2=O)c(F)cc1Cl (stereo not drawn) [Tiafenacil]	Burndown with no residual activity		
C#CCN1C(=O)COc2cc(F)c(N3C(=O)C4=C(CCCC4)C3=O)cc21 [Flumioxazin]	One to two weeks residual		
CCOC(=O)COC(=O)c1cc(Oc2ccc(C(F)(F)F)cc2Cl)ccc1[N+](=O)[O-] [Fluoroglycofen-ethyl]	No residual activity		
CS(=O)(=O)c1ccc(C(=O)C2C(=O)CCCC2=O)c(Cl)c1COCC(F)(F)F [Tembotrione]		14 days residual activity	

Test system: Crimson Clover, Annual Rye Grass, Rescue Grass
Assay: Field experiment: early burndown and herbicidal efficacy of glufosinate + diquat compositions (FIGS. 3A-3C)
Format: in vivo
Details: burndown agent combined with glufosinate
From the text: “Herbicidal efficacy” or “herbicidal effectiveness,” as used herein, refers to any observable measure of control of weed or grass growth, which can include one or more of the actions of (1) killing, (2) inhibiting growth, reproduction or proliferation, and (3) removing, destroying, or otherwise diminishing the occurrence and activity of weeds or grasses. The herbicidal effectiveness data set forth herein report “control” as a percentage following a standard procedure in the art which reflects a visual assessment of plant mortality and growth reduction by comparison with untreated plants, made by technicians specially trained to make and record such observations. In all cases, a single technician makes all assessments of percent control within any one experiment or trial.
Various examples and comparatives examples of the weed control compositions and RTU solutions were prepared according to Table 2. The RTU solutions were applied to test fields with various types of weeds and grasses, and the burndown effect and/or the long-term efficacy of the test RTU solutions are observed and compared. Equipment, sprayer, and selected operating conditions for application of the RTU compositions to the test areas are provided in Table 3.
All field experiments were set in 1 m^2 plots replicated four times in a randomized complete block design with appropriate industry standards and untreated controls. The example compositions and comparative example compositions according to Table 2 were tested in the field experiments. […] Plots were sprayed once, and then assessed for speed to visible activity, percent (%) weed control, and percent residual control over time to determine burndown activity, speed to kill, extended control and residual pre-emergent activity.

Molecule	burndown compared to glufosinate alone	effectiveness as burndown agent, ammonium nonanoate versus Diquat
c1cc[n+]2c(c1)-c1cccc[n+]1CC2 [Diquat]	enhanced burndown compared to glufosinate alone	
CCCCCCCCC(=O)O.N [Ammonium nonanoate]	enhanced burndown compared to glufosinate alone	superior effectiveness compared to Diquat
